{
  "source": "patent US20230414626A1",
  "about": "“INDUCTION OF FERROPTOSIS FOR CANCER THERAPY” (Memorial Sloan Kettering Cancer Center, priority 2020, published 2023)",
  "data": [
    {"tested_on": "SREBF1-knockout cells", "assay": "Cell death in SREBF1-knockout cells", "format": "cell-based, human", "settings": "SREBF1-knockout MDA-MB-453 and BT474 cells; Torin 1 μM; GDC-0941 2 μM; MK-2206 2 μM; CCI-779 0.5 μM", "experimental": "FIG. 9 A-F. SREBP1 protects cells from ferroptosis. (A) MCF7 cells were treated as indicated. RSL3, 5 μM; CCI-779, 0.5 μM. Cell lysates were collected 24 h after treatment for Western blot detecting […], total S6K, SREBP1(P) and SREBP1(m). (B) Cells were pretreated with 5 μM Fatostatin A overnight and treated as indicated. RSL3, 0.5 μM for BT474 cells, 1 μM for MDA-MB-453 and 5 μM for MCF7 cells; Fer-1, 1 μM. (C) Efficiency of SREBF1 Knockout in BT474, MDA-MB-453, and MCF7 cells was monitored by western blot. (D) MCF7 cells were treated as indicated. RSL3, 5 μM; Fer-1, 1 μM. (E) Cells were treated as indicated. RSL3, 1 μM for MDA-MB-453 cells and 0.5 μM for BT474 cells; Fer-1, 1 μM; Torin, 1 μM; GDC-0941, 2 μM; MK-2206, 2 μM; CCI-779, 0.5 μM. (F) SREBP1m was overexpressed in MCF7, MDA-MB-453 and A549 cells and determined by western blot. Cells were treated as indicated. RSL3, 5 μM for MCF7 cells, 0.5 μM for MDA-MB-453 cells and 0.25 μM for A549 cells; CCI-779, 0.5 μM.\nCells were seeded in plates at appropriate cell density and incubated overnight at 37° C. containing 5% C02, and then subjected to treatments as described in individual experiments. Cells were stained with hoechst 33342 (0.1 μg/ml) to monitor total cell number, and with Sytox Green (5 nM) to monitor cell death. Culture plates were read by Cytation 5 at indicated time points. Percentage of cell death was calculated as Sytox Green-positive cell number over total cell number. For 3D spheroids, cell viability was determined a commercially available cell viability assay (Promega, Madison, WI, USA) following the manufacturer's instructions. Viability was calculated by normalizing ATP levels of samples to that of negative controls (spheroids in normal full media without treatment).\nKeap1, NRF2 and SREBP1 depleted cells were generated with a CRISPR/Cas9-mediated knockout system. sgRNA sequences were cloned into LentiCRISPRV2. SCD1 depleted cells were generated with CRISPR/Cas9 mediated knockout system, using stable Cas9 expression cells and sanger CRISPR clone. […]", "values": [
      {"smiles": "CO[C@H]1C[C@@H]2CC[C@@H](C)[C@@](O)(O2)C(=O)C(=O)N2CCCC[C@H]2C(=O)O[C@H]([C@H](C)C[C@@H]2CC[C@@H](OC(=O)C(C)(CO)CO)[C@H](OC)C2)CC(=O)[C@H](C)/C=C(\\C)[C@@H](O)[C@@H](OC)C(=O)[C@H](C)C[C@H](C)/C=C/C=C/C=C/1C", "note": "[CCI-779, Temsirolimus]", "further enhancement of RSL3-induced ferroptosis": "failed to further enhance RSL3-induced ferroptosis"},
      {"smiles": "CS(=O)(=O)N1CCN(Cc2cc3nc(-c4cccc5[nH]ncc45)nc(N4CCOCC4)c3s2)CC1", "note": "[GDC-0941]", "further enhancement of RSL3-induced ferroptosis": "failed to further enhance RSL3-induced ferroptosis"},
      {"smiles": "NC1(c2ccc(-c3nc4ccn5c(=O)[nH]nc5c4cc3-c3ccccc3)cc2)CCC1", "note": "[MK-2206]", "further enhancement of RSL3-induced ferroptosis": "failed to further enhance RSL3-induced ferroptosis"},
      {"smiles": "CCC(=O)N1CCN(c2ccc(-n3c(=O)ccc4cnc5ccc(-c6cnc7ccccc7c6)cc5c43)cc2C(F)(F)F)CC1", "note": "[Torin]", "further enhancement of RSL3-induced ferroptosis": "failed to further enhance RSL3-induced ferroptosis"}
    ]}
  ]
}
